Assay results published in paper PMC9853328, “Potent Platinum(IV) Prodrugs That Incorporate a Biotin Moiety to Selectively Target Cancer Cells” (Pharmaceutics, 2022).
“And” between values parts separate entries of the source, which are not always exact repeats. Equal values may be shown once. Read-outs that look alike come from different tables or passages of the source.

Columns and labels:
[1] = test system: A2780 ovarian cancer cells; experiment: MTT in vitro cytotoxicity assay, A2780; format: cell-based; settings: 72 h drug exposure, n = 3, read-out: GI50 ± SEM, A2780
Protocol: (§1) The in vitro cytotoxicity assays were undertaken at Calvary Mater Hospital, Waratah, NSW, Australia, following a method previously published in the literature. A stock solution for each compound was prepared in DMSO (30 mM) and stored at −20 °C. The cell lines used in the study include HT29 colon, U87 glioblastoma, MCF-7 breast, A2780 ovarian, H460 lung, A431 skin, Du145 prostate, BE2-C neuroblastoma, SJ-G2 glioblastoma, MIA pancreas, and cisplatin-resistant ADDP ovarian (subclone of A2780) cancer cells, as well as the non-cancerous-derived MCF10A breast cell line. The cancer cell lines were cultured in a humidified atmosphere 5% CO2 at 37 °C and maintained in Dulbecco’s modified Eagle’s medium (Trace Biosciences, Sydney, Australia), supplemented with 10% foetal bovine serum, sodium bicarbonate (10 mM), penicillin (100 IU/mL), streptomycin (100 µg/mL), and glutamine (4 mM). The non-cancerous MCF10A cell line was maintained in DMEM:F12 (1:1) cell culture media, with 5% heat inactivated horse serum, supplemented with penicillin (50 IU/mL), streptomycin (50 µg/mL), glutamine (2 mM), HEPES (20 mM), epidermal growth factor (20 ng/mL), hydrocortisone (500 ng/mL), cholera toxin (100 ng/mL), and insulin (10 µg/mL). Cells were plated in duplicate in medium (100 µL) at a density of 2500–4000 cells per well in 96-well plates. On day 0, (24 h after plating) when the cells were in logarithmic growth, medium (100 μL) with or without the test agent was added to each well. The growth inhibitory effects were evaluated after 72 h drug exposure, using the MTT (3-(4,5-dimethylthiazol-2-yl)-2,5-diphenyltetrazolium bromide) assay, with the absorbance read at 540 nm. An eight-point dose–response curve was produced, which was used to determine the concentration at which growth was inhibited by 50% (GI50). This calculation was based on the difference between the optical density values on day 0 and those at the end of drug exposure. […] Experiments were conducted on three separate occasions and GI50 values were reported as the mean and standard error of the mean.

[2] = test system: Du145 prostate cancer cells; experiment: MTT in vitro cytotoxicity assay, Du145; format: cell-based; settings: for GI50: MTT; for number-fold potency against cisplatin, Du145 prostate: ratio of GI50 values
Protocol: as §1

[3] = test system: ADDP (subclone of A2780) versus A2780 ovarian cancer cell lines; experiment: Resistance factor, GI50 in ADDP/GI50 in A2780; format: cell-based
[4] = test system: panel of cancer cell lines; experiment: MTT cytotoxicity averaged across the panel of cancer cell lines; format: cell-based; settings: for enhanced activity compared to platinum(II) precursor across the cancer cell lines: across all cancer cell lines; for GI50: calculated from the panel of cancer cell lines tested (Table S4)
A431 skin cancer cells = experiment: MTT in vitro cytotoxicity assay, A431; format: cell-based; settings: 72 h drug exposure, n = 3, read-out: GI50 ± SEM, A431
Protocol: as §1

[5] = test system: cisplatin-resistant ADDP ovarian (subclone of A2780) cancer cells; experiment: MTT in vitro cytotoxicity assay, ADDP; format: cell-based; settings: 72 h drug exposure, n = 3, read-out: GI50 ± SEM, ADDP
Protocol: as §1

U87 glioblastoma cells = experiment: MTT in vitro cytotoxicity assay, U87; format: cell-based; settings: 72 h drug exposure, n = 3, read-out: GI50 ± SEM, U87
Protocol: as §1

HT29 colon cancer cells = experiment: MTT in vitro cytotoxicity assay, HT29; format: cell-based; settings: for GI50: MTT, 72 h drug exposure, n = 3, read-out: GI50 ± SEM, HT29; for number-fold potency against cisplatin, HT29 colon: ratio of GI50 values, 72 h
Protocol: as §1

[6] = test system: BE2-C neuroblastoma cells; experiment: MTT in vitro cytotoxicity assay, BE2-C; format: cell-based; settings: 72 h drug exposure, n = 3, read-out: GI50 ± SEM, BE2-C
Protocol: as §1

SJ-G2 glioblastoma cells = experiment: MTT in vitro cytotoxicity assay, SJ-G2; format: cell-based; settings: 72 h drug exposure, n = 3, read-out: GI50 ± SEM, SJ-G2
Protocol: as §1

[7] = Lipophilicity by RP-HPLC (logkw); format: physicochemical; settings: capacity factor in 100% water
Protocol: HPLC experiments were carried out using an Agilent Technologies (Melbourne, Australia) 1260 Infinity instrument, equipped with a Phenomenex (Sydney, Australia) Onyx^TM Monolithic C18 reverse phase column (100 × 4.6 mm, 130 Å). The mobile phase was made up of 0.06% TFA in water (solvent A) and 0.06% TFA in an acetonitrile:water (9:1) mixture (solvent B). Samples were eluted over a gradient of 0–100% (% B) for 15 min, at a flow rate of 1 mL/min, with a sample injection volume of 10 µL. Eluting peaks were detected using a PDA at 254 nm.
For lipophilicity experiments, RP-HPLC was utilised to determine the logkw of each compound, similarly to what has been previously published for similar complexes. Samples were eluted at various isocratic percentages, ranging from 18–30% solvent B. To determine the dead volume of the column, potassium iodide was used as an external dead volume marker. The retention time of each sample in each isocratic run ( tr ) and the dead volume time ( t0 ) were both substituted in Equation (1) to calculate the capacity factor ( k ). (1) k=tr−t0/t0
Following this, logk was plotted against the percentage of ACN. For each complex, a minimum of four concentrations of ACN were used. This produced a linear graph with the equation in the form:(2) logk=Sφ+logkw where S is the slope, φ is the percentage of ACN, and logkw is the y-intercept, which represents the capacity factor of the compound in 100% water.
It is important to explore the lipophilicity of a drug, as it is widely believed that increased lipophilicity results in greater cellular accumulation. To understand the lipophilicity of 1–4, RP-HPLC was utilised to determine the logkw of each complex. To calculate this, each complex was eluted at different isocratic percentages, whereby the retention time was used in Equation (1) to calculate the capacity factor (k). The percentage of the organic solvent was then plotted against log k for each isocratic percentage, producing a linear equation that allowed for logkw to be deduced using Equation (2) (Figure S38). The logkw value represents the capacity factor of the compound in 100% water and can be used to compare a series of compounds. Since 1–4 comprise the same axially bound ligand, biotin, the lipophilicity was influenced by the groups on the PL. The logkw of each complex is presented in Table 1, with their corresponding PL. The increasing lipophilicity of the complexes followed the order: 1 < 4 < 2 < 3.

[8] = test system: MIA pancreas cancer cells; experiment: MTT in vitro cytotoxicity assay, MIA; format: cell-based; settings: 72 h drug exposure, n = 3, read-out: GI50 ± SEM, MIA
Protocol: as §1

[9] = test system: non-cancerous MCF10A breast cell line; experiment: MTT in vitro cytotoxicity assay, MCF10A; format: cell-based; settings: 72 h drug exposure, n = 3, read-out: GI50 ± SEM, MCF10A
Protocol: as §1

H460 lung cancer cells = experiment: MTT in vitro cytotoxicity assay, H460; format: cell-based; settings: 72 h drug exposure, n = 3, read-out: GI50 ± SEM, H460
Protocol: as §1

[10] = test system: MCF-7 breast cancer cells; experiment: MTT in vitro cytotoxicity assay, MCF-7; format: cell-based; settings: for GI50: MTT, 72 h drug exposure, n = 3, read-out: GI50 ± SEM, MCF-7
[11] = test system: MCF-7 (breast cancer) cells; experiment: Cellular platinum uptake by ICP-MS, MCF-7; format: cell-based; settings: at both 1.0 and 0.1 µM, 4 h
Protocol: Cellular uptake studies were carried out in MCF-7 (breast cancer) and MCF10A (healthy breast) cell lines. Reported in Table S2 are the numbers of cells per well that were seeded onto 12-well plates for each replicate and cell line. After incubating overnight at 37 °C, the cell culture medium was replaced with fresh media containing the test compounds at concentrations of 1.0 and 0.1 µM. After incubating for 4 h, the medium was removed, the cells were washed with PBS twice, and then incubated with trypsin solution until the cells dissociated from the plate. The harvested cells were then placed into an Eppendorf tube and PBS was added to a volume of 1 mL. Cell numbers were determined using trypan blue staining. Cell pellets were obtained after centrifugation and the cells were dispersed in 50 µL of MilliQ™ water and stored immediately at −20 °C until platinum analysis was conducted. These experiments were repeated in triplicate on three separate occasions.
Sixty-nine percent HNO3 (50 µL) was added to each sample and digested at 80 °C for 1.5 h, before being taken up to 1 mL with H2O. The platinum analysis was conducted using a PerkinElmer (Melbourne, Australia) NexION™ 300X inductively coupled plasma mass spectrometer (ICP-MS). A four-point calibration curve was produced by serial dilution of a certified platinum reference standard. The calibration was linear over the working range (R^2 > 0.9999) and the most abundant platinum isotope (m/z = 195) was monitored. The average values for three independent experiments were reported with standard deviations.

[12] = 72 h drug exposure, n = 3, read-out: GI50 ± SEM, Du145

SMILES | GI50 [1] [nM] | GI50 [2, 12] [nM] | number-fold potency against cisplatin, Du145 prostate ([2]; 72 h) [fold] | Resistance factor (RF) [3] | enhanced activity compared to platinum(II) precursor across the cancer cell lines [4] | GI50 [4] [nM] | GI50 (A431 skin cancer cells) [nM] | GI50 [5] [nM] | GI50 (U87 glioblastoma cells) [nM] | GI50 (HT29 colon cancer cells) [nM] | number-fold potency against cisplatin, HT29 colon (HT29 colon cancer cells) [fold] | GI50 [6] [nM] | GI50 (SJ-G2 glioblastoma cells) [nM] | logkw [7] | GI50 [8] [nM] | GI50 [9] [nM] | GI50 (H460 lung cancer cells) [nM] | GI50 [10] [nM] | also measured
O=C1N[C@H]2[C@H](CS[C@H]2CCCCC(=O)[O][Pt-2]23([OH])([NH2+][C@H]4CCCC[C@@H]4[NH2+]2)[n+]2cccc4ccc5ccc[n+]3c5c42)N1.O=[N+]([O-])[O-].O=[N+]([O-])[O-] [Complex 1, [Pt(1,10-phenthroline)(1S,2S-diaminocyclohexane)(biotin)(hydroxido)](NO3)2] | 250 ± 20 | 120 ± 40 | 10 | 0.96 | comparable activity | 455 | 600 ± 110 | 240 ± 10 | 970 ± 150 | 170 ± 60 | 66 | 1000 ± 100 | 290 ± 70 | 0.64 | 210 ± 30 | 280 ± 40 | 300 ± 20 | 850 ± 140 | –
Cc1c(C)c2ccc[n+]3c2c2c1ccc[n+]2[Pt-2]31([OH])([O]C(=O)CCCC[C@@H]2SC[C@@H]3NC(=O)N[C@@H]32)[NH2+][C@H]2CCCC[C@@H]2[NH2+]1.O=[N+]([O-])[O-].O=[N+]([O-])[O-] [Complex 2, [Pt(5,6-dimethyl-1,10-phenanthroline)(1S,2S-diaminocyclohexane)(biotin)(hydroxido)](NO3)2] | 20 ± 4 | – | 300 | 0.55 | ~ 2 fold | 27 | 36 ± 6 | 11 ± 4 | 32 ± 8 | 11 ± 5 | – | 100 ± 10 | 36 ± 10 | 0.78 | 10 ± 2 | 14 ± 4 | 18 ± 4 | 22 ± 8 | GI50 ([2]; 72 h, read-out: GI50, Du145 prostate cancer cell line): 4 nM
Cc1cc2ccc[n+]3c2c2c1ccc[n+]2[Pt-2]31([OH])([O]C(=O)CCCC[C@@H]2SC[C@@H]3NC(=O)N[C@@H]32)[NH2+][C@H]2CCCC[C@@H]2[NH2+]1.O=[N+]([O-])[O-].O=[N+]([O-])[O-] [Complex 4, [Pt(5-methyl-1,10-phenanthroline)(1S,2S-diaminocyclohexane)(biotin)(hydroxido)](NO3)2] | 34 ± 5 | 9 ± 4 | 133 | 0.853 and 0.85 | ~ 2.3 fold | 55 | 110 ± 20 | 29 ± 5 | 110 ± 30 | 28 ± 9 | 404 | 100 ± 20 | 100 ± 30 | 0.74 | 20 ± 4 | 31 ± 9 | 32 ± 10 | 33 ± 4 | fold lower uptake in MCF-7 than its platinum(II) precursor [11]: ~ 2 fold; fold more active than its platinum(II) precursor in MCF-7 ([10]; ratio of GI50 values): 6 fold
